pIC50: −log10 of the molar value.
Columns and labels:
CYP2A6 = biological target: T1, CYP2A6 (Homo sapiens, UniProt P11509); assay: Determination of selectivity of a CYP2E1 inhibitor: CYP2A6; format: biochemical; conditions: mixed human liver microsome, 2.5 μM coumarin probe; read-out: IC50 for 2A6 inhibition
T1 construct: With a mixed liver microsome of a healthy individual as a research object; from tissue; host or cells: mixed (pooled) human liver microsomes of healthy individuals
From the text: With a mixed liver microsome of a healthy individual as a research object, probe drugs CYP1A2, CYP2A6, CYP2B6, CYP2C8, CYP2C9, CYP2C19, CYP2D6, CYP2E1, and CYP3A4 were selected to determine an in vitro inhibitory effect of an inhibitor to be tested on the metabolism of the probe drugs CYP1A2, CYP2A6, CYP2B6, CYP2C8, CYP2C9, CYP2C19, CYP2D6, CYP2E1, and CYP3A4 for the mixed liver microsome of the healthy human, and the selectivity of the inhibitor to be tested for a CYP2E1 inhibitory effect was evaluated.
The CYP1A2 probe is 6.25 μM to 800 μM phenacetin or 27.5 μM to 12,520 μM caffeine; • the CYP2A6 probe is 0.156 μM to 20 μM coumarin or 12.5 μM to 2,000 μM nicotine; • the CYP2B6 probe is 7.8 μM to 500 μM bupropion or 0.25 mM to 30 mM cyclophosphamide; • the CYP2C8 probe is 2.5 μM to 80 μM paclitaxel or 0.125 μM to 128 μM amodiaquine; • the CYP2C9 probe is 31.25 μM to 2,000 μM tolbutamide or 0.1 μM to 200 μM diclofenac; • the CYP2C19 probe is 3.9 μM to 500 μM omeprazole or 1.95 μM to 1,000 μM mephenytoin; • the CYP2D6 probe is 0.625 μM to 96 μM dextromethorphan or 0.0195 μM to 80 μM propafenone; and • the CYP3A4 probe is 0.39 μM to 50 μM midazolam or 1.98 μM to 1,000 μM testosterone.
An incubation system in a total volume of 100 μL was adopted, including a substrate, an inhibitor of different concentrations, a liver microsomal protein, and PBS. […]

CYP2E1 [1] = biological target: T2, CYP2E1 (Mus musculus, UniProt Q05421); assay: CYP2E1 activity (CZX metabolism by liver microsome) in LPS-induced mouse pulmonary fibrosis model; format: in vivo; conditions: liver microsome of SMI0 high-dose group vs model group, P<0.05
T2 construct: from tissue; host or cells: liver microsomes of treated model mice (calcium precipitation)
T2 sequence (Q05421 whole entry): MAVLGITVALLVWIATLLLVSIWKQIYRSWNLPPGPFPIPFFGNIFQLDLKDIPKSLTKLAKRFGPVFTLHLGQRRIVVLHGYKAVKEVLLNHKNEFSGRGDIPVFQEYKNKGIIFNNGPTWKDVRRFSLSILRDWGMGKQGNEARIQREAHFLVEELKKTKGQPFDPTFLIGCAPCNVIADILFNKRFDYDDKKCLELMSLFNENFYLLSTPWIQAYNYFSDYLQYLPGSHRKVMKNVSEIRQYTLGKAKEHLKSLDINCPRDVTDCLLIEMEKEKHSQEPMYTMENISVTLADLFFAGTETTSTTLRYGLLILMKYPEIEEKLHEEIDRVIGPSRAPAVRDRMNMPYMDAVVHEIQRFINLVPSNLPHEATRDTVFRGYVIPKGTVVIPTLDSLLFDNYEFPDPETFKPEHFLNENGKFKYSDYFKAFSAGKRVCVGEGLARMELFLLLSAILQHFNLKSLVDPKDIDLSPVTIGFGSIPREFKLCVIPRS
Method: (§1) Experimental method: A calcium precipitation method was used to prepare a mouse liver microsome, and a Braford method was used to determine a protein concentration in the microsome. An incubation system was prepared with 2×PBS, a CZX solution, and the liver microsome at a final concentration of 0.5 mg/mL, and then pre-incubated at 37° C. for 5 min; NADPH was added to initiate a reaction, and a resulting mixture was incubated at 37° C. for 30 min and then placed on ice to terminate the reaction; and ethyl acetate was added to extract 6-hydroxychlorzoxazone, a resulting mixture was vortexed and centrifuged, and a resulting upper organic phase was collected and blow-dried with nitrogen. A peak area of a CZX metabolite 6-hydroxychlorzoxazone was detected by HPLC under the following conditions: methanol:water=56:44, and detection wavelength: 287 nm. A concentration A C of the metabolite 6-hydroxychlorzoxazone was calculated through substitution into a standard curve; and a reaction rate of conversion of CZX into 6-hydroxychlorzoxazone was calculated according to V(pmol/min/mg)=(ΔC*1000)/(B*T) to evaluate an enzymatic activity of CYP2E1, where B represents a protein concentration of the microsome (mg/mL) and T represents an incubation time (min). A correlation between a CYP2E1 activity and a pulmonary fibrosis severity in mice was analyzed.

CYP2E1 [2] = biological target: T2, CYP2E1; assay: CYP2E1 activity (liver microsome) in mouse Lewis lung cancer in situ model; format: in vivo; conditions: SMI0 intervention group vs model group, P<0.05
Method: as §1, with “between” for “between a”, “lung tumor weight” for “a pulmonary fibrosis severity”, “the Lewis lung cancer in situ model” for “mice”

[3] = system: HepG2 liver cancer cells / macrophage RAW264.7; assay: HepG2 cells co-cultivated with RAW264.7 macrophage supernatant; format: cell-based; conditions: SMI0 intervention groups (especially 4 μmol/L) vs macrophage co-cultivation group, P<0.001
Method: Experimental method: A supernatant of a murine macrophage RAW264.7 was collected to establish a co-cultivation system with the HepG2 liver cancer cell, thereby simulating a macrophage inflammatory microenvironment of liver cancer. In the SMI0 intervention groups, SMI0 was added at different concentrations (0 μmol/L, 0.16 μmol/L, 0.8 μmol/L, 4 μmol/L, 20 μmol/L, and 100 μmol/L) while interleukin was added for induction. Culture supernatants of the SMI0 intervention groups were collected to prepare conditional media. HepG2 liver cancer cells in a logarithmic growth phase were adopted. The proliferation activity of HepG2 was determined by a CCK8 method, a migration ability of HepG2 was determined by wound-healing assay, and an apoptosis ability of HepG2 was determined by FCM.

T1 sequence (P11509 whole entry): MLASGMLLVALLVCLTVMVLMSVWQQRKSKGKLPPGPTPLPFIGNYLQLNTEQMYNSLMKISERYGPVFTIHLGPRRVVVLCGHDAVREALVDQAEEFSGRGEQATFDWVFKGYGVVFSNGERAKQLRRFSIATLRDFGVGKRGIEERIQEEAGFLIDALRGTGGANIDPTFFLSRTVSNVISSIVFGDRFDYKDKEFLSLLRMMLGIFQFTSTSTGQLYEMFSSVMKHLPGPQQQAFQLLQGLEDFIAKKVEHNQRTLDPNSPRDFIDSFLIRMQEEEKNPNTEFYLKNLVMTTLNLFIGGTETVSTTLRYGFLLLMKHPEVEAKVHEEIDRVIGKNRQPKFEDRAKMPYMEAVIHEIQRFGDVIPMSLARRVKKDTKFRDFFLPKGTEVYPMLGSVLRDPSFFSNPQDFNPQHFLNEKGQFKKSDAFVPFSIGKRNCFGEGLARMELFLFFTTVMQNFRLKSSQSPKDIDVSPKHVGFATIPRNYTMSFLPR

CC(=O)c1scnc1C [SMI0] was tested, and the pIC50 (CYP2A6) was 4.12, the “reaction rate V of CZX metabolism” value (CYP2E1 [1]) was “significantly reduced” and the CYP2E1 activity (CYP2E1 [2]) was “significantly reduced”. For the same molecule, the “apoptosis ability of HepG2 liver cancer cells” value [3] was “significantly enhanced”, the “migration ability of HepG2 liver cancer cells” value [3] was “significantly weakened” and the “proliferation activity of HepG2 liver cancer cells” value [3] was “significantly weakened”.

— patent US20230277508A1, “USE OF COMPOUND AS CYP2E1 INHIBITOR” (SHANGHAI LING XI BIOTECHNOLOGY DEVELOPMENT CO., LTD., priority 2020, published 2023)
